Data on nine compounds can be found in patent US20230277698A1, “SILICON-CONTAINING LIGAND COMPOUNDS” (Technische Universität München, priority 2020, published 2023).

Data set [1] deals with T1, PSMA (Homo sapiens, UniProt Q04609).
T1 construct: PSMA-positive LNCAP cells (300265; Cell Lines Service, Eppelheim, Germany); host or cells: LNCaP cells
The experiment in a line: PSMA affinity (IC50), competition with ([125I]I-BA)KuE on LNCaP cells. To be noted: natLu complexes; LNCaP cells 150000 cells/well, ([125I]I-BA)KuE c=0.2 nM, 1 h, 4 °C, HBSS+1% BSA; mean±SD, n=3; read-out: IC50 (binding affinity to PSMA). The procedure:
PSMA-positive LNCAP cells (300265; Cell Lines Service, Eppelheim, Germany) were cultivated in Dulbecco modified Eagle medium/Nutrition Mixture F-12 with Glutamax (1:1) (DMEM-F12, Biochrom, Berlin, Germany) supplemented with fetal bovine serum (10%, FBS Zellkultur, Berlin, Germany) and kept at 37° C. in a humidified CO2 atmosphere (5%). A mixture of trypsin and EDTA (0.05%, 0.02%) in PBS (Biochrom) was used in order to harvest cells. Cells were counted with a Neubauer hemocytometer (Paul Marienfeld, Lauda-Königshofen, Germany).
In the case of metal-complexed ligands, the crude reaction mixture was diluted analogously, without further purification. Cells were harvested 24±2 hours prior to the experiment and seeded in 24-well plates (1.5×10^5 cells in 1 mL/well). After removal of the culture medium, the cells were carefully washed with 500 μL of HBSS, supplemented with 1% bovine serum albumin (BSA, Biowest, Nuaillé, France) and left 15 min on ice for equilibration in 200 μL HBSS (1% BSA). Next, 25 μL per well of solutions, containing either HBSS (1% BSA, control) or the respective ligand in increasing concentration ([…] in HBSS) were added with subsequent addition of 25 μL of [^125I]-BA-KuE (2.0 nM) in HBSS (1% BSA). After incubation on ice for 60 min, the experiment was terminated by removal of the medium and consecutive rinsing with 200 μL of HBSS (1% BSA). The media of both steps were combined in one fraction and represent the amount of free radioligand. Afterwards, the cells were lysed with 250 μL of 1 M aqueous NaOH for at least 10 min. After a washing step (250 μL of 1 M NaOH), both fractions, representing the amount of bound ligand, were united. Quantification of all collected fractions was accomplished in a γ-counter. PSMA-affinity determinations were carried out at least three times per ligand.
Affinities were determined using LNCaP cells (150000 cells/well) and ([^125I]I-BA)KuE (c=0.2 nM) as the radioligand (1 h, 4° C., HBSS+1% BSA). Data are expressed as mean±SD (n=3).

Data set [2] concerns the target human serum albumin (HSA) (Homo sapiens, UniProt P02768). The experiment in a line: HSA binding by high performance affinity chromatography (HiPAC). To be noted: lutetium-complexed; Chiralpak HSA column. On the set-up: purchased Daicel, Tokyo, Japan H13H-2433. In kind it is in vitro ADME. The procedure: HSA binding of the PSMA-addressing ligands was determined according to a previously published procedure via HPLC (Valko, K.; Nunhuck, S.; Bevan, C.; Abraham, M. H.; Reynolds, D. P., Fast gradient HPLC method to determine compounds binding to human serum albumin. Relationships with octanol/water and immobilized artificial membrane lipophilicity. J Pharm Sci. 2003, 92, 2236-2248). A Chiralpak HSA column (50×3 mm, 5 μm, H13H-2433, Daicel, Tokyo, Japan) was used at a constant flow rate of 0.5 mL/min at rt. Mobile phase A was a freshly prepared 50 mM aqueous solution of NH4OAc (pH 6.9) and mobile phase B was isopropanol (HPLC grade, VWR). The applied gradient for all experiments was 100% A (0 to 3 min), followed by 80% A (3 to 40 min). Prior to the experiment, the column was calibrated using nine reference substances with a HSA binding, known from literature, in the range of 13 to 99% (Valko, K.; Nunhuck, S.; Bevan, C.; Abraham, M. H.; Reynolds, D. P., J Pharm Sci. 2003, 92, 2236-2248; Yamazaki, K.; Kanaoka, M., Computational prediction of the plasma protein-binding percent of diverse pharmaceutical compounds. J Pharm Sci. 2004, 93, 1480-1494). All substances, including the examined PSMA ligands, were dissolved in a 1:1 mixture (v/v) of isopropanol and a 50 mM aqueous solution of NH4OAc (pH 6.9) with a final concentration of 0.5 mg/mL. Non-linear regression was established with the OriginPro 2016G software (Northampton, United States).
FIG. 1 is an exemplary sigmoidal plot, showing the correlation between human serum albumin (HSA) binding of selected reference substances and retention time (tR). The underlying values of HSA binding also shown in the corresponding table and were obtained from literature (Valko, K.; Nunhuck, S.; Bevan, C.; Abraham, M. H.; Reynolds, D. P., J Pharm Sci. 2003, 92, 2236-2248; Yamazaki, K.; Kanaoka, M., J Pharm Sci. 2004, 93, 1480-1494). Log tR: logarithmic value of experimentally determined retention time. Log K HSA: logarithmic value of HSA binding values.

In general, IC50 refers to the concentration that inhibits the measured activity by half.

T1 sequence (Q04609 whole entry): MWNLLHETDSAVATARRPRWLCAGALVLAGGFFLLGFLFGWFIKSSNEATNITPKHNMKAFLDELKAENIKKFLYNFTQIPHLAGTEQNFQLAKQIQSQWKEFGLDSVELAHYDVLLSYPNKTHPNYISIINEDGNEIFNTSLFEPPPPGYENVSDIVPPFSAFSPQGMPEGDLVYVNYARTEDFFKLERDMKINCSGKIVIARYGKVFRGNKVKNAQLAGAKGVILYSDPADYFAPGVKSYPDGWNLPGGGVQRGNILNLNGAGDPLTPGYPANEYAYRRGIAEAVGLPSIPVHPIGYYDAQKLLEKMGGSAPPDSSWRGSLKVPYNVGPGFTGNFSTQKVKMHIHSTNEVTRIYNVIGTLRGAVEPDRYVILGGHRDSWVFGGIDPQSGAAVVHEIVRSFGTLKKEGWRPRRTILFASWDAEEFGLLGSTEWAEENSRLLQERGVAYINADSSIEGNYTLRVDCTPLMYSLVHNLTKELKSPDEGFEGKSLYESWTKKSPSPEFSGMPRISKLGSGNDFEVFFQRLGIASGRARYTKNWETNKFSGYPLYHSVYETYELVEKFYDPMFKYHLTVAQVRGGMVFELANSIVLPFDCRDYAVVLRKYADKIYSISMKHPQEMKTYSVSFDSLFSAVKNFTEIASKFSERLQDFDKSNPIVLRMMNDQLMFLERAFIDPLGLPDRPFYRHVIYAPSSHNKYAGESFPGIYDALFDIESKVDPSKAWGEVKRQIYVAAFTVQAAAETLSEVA
Sequence of human serum albumin (HSA) (P02768 25-609): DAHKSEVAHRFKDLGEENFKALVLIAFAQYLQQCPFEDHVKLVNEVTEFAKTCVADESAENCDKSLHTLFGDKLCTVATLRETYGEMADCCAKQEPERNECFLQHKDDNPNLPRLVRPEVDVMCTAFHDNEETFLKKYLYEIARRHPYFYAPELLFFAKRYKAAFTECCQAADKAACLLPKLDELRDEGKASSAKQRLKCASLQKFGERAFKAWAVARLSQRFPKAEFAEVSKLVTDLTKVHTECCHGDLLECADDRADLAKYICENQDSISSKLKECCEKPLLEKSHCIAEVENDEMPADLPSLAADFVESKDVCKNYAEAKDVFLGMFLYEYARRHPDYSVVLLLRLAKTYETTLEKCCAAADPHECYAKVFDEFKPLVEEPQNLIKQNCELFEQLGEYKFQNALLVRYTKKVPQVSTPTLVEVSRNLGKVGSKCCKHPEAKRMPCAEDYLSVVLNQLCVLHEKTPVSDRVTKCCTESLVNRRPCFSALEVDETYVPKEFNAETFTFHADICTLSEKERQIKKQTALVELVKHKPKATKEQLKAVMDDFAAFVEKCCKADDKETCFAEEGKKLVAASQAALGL

In the case of `CC(C)(C)[Si](O)(c1ccc(C(=O)NC[C@@H](NC(=O)CC[C@@H](C(=O)O)N2CCN(CC(=O)O)CCN(CC(=O)O)CCN(CC(=O)O)CC2)C(=O)N[C@H](CCCCNC(=O)CCC(=O)NCCC[C@@H](NC(=O)CC[C@H](NC(=O)N[C@@H](CCC(=O)O)C(=O)O)C(=O)O)C(=O)O)C(=O)O)cc1)C(C)(C)C` [7.3-SiOH], the half-maximal inhibitory concentration (IC50) in data set [1] was 5.9 ± 1.4 nM. For the same compound, the “HSA-binding HiPAC” value in data set [2] stood at 96.4%.

For `CC(C)(C)[Si](O)(c1ccc(C(=O)NC[C@@H](NC(=O)CC[C@@H](C(=O)O)N2CCN(CC(=O)O)CCN(CC(=O)O)CCN(CC(=O)O)CC2)C(=O)N[C@H](CO)C(=O)NCCC(=O)NCCC(=O)NCCC[C@@H](NC(=O)CC[C@H](NC(=O)N[C@@H](CCC(=O)O)C(=O)O)C(=O)O)C(=O)O)cc1)C(C)(C)C` [C007-SiOH], the 50% inhibitory concentration (IC50) in data set [1] is 7.1 ± 0.9 nM. The “HSA-binding HiPAC” value in data set [2] is recorded as 86.3%.

For the compound `CC(C)(C)[Si](O)(c1ccc(C(=O)NC[C@@H](NC(=O)CC[C@@H](C(=O)O)N2CCN(CC(=O)O)CCN(CC(=O)O)CCN(CC(=O)O)CC2)C(=O)NCC(=O)N[C@@H](CCCCNC(=O)CCC(=O)NCCC[C@@H](NC(=O)CC[C@H](NC(=O)N[C@@H](CCC(=O)O)C(=O)O)C(=O)O)C(=O)O)C(=O)O)cc1)C(C)(C)C` [E102-SiOH], the half-maximal inhibitory concentration (IC50) in data set [1] was determined as 8.4 ± 2.4 nM. Further, the “HSA-binding HiPAC” value in data set [2] is 95.1%.

As for `CC(C)(C)[Si](O)(c1ccc(C(=O)NC[C@@H](NC(=O)CCCCCNC(=O)CCCNC(=O)CC[C@@H](NC(=O)CCC(NC(=O)N[C@@H](CCC(=O)O)C(=O)O)C(=O)O)C(=O)O)C(=O)NCC(=O)N[C@@H](CCCCNC(=O)CC[C@@H](C(=O)O)N2CCN(CC(=O)O)CCN(CC(=O)O)CCN(CC(=O)O)CC2)C(=O)O)cc1)C(C)(C)C` (stereo partly drawn) [E104-SiOH], the IC50 in data set [1] is 9 ± 2.2 nM. In data set [2], the “HSA-binding HiPAC” value amounted to 85.8%.

Consider `CC(C)(C)[Si](O)(c1ccc(C(=O)N[C@H](CCC(=O)NC[C@@H](NC(=O)CC[C@@H](C(=O)O)N2CCN(CC(=O)O)CCN(CC(=O)O)CCN(CC(=O)O)CC2)C(=O)NCCCCCC(=O)NCCC[C@@H](NC(=O)CC[C@H](NC(=O)N[C@@H](CCC(=O)O)C(=O)O)C(=O)O)C(=O)O)C(=O)O)cc1)C(C)(C)C` [P105-SiOH], for which the concentration for half-maximal inhibition (IC50) in data set [1] came out at 9.8 ± 0.4 nM. In data set [2], the “HSA-binding HiPAC” value is recorded as 97.8%.

`CC(C)(C)[Si](O)(c1ccc(C[N+](C)(C)CC(=O)NCCC[C@@H](NC(=O)CC[C@@H](C(=O)O)N2CCN(CC(=O)O)CCN(CC(=O)O)CCN(CC(=O)O)CC2)C(=O)NCCCCCC(=O)NCCC[C@@H](NC(=O)CC[C@H](NC(=O)N[C@@H](CCC(=O)O)C(=O)O)C(=O)O)C(=O)O)cc1)C(C)(C)C` [P110-SiOH]: in data set [1], the 50% inhibitory concentration (IC50) amounted to 42.2 ± 6.2 nM. The “HSA-binding HiPAC” value in data set [2] is reported as 31.3%.

Consider `O=C(O)CC[C@H](NC(=O)N[C@@H](CCCCNC(=O)[C@H](Cc1ccc2ccccc2c1)NC(=O)[C@H]1CC[C@H](CNC(=O)CN2CCN(CC(=O)O)CCN(CC(=O)O)CCN(CC(=O)O)CC2)CC1)C(=O)O)C(=O)O` [PSMA-617, reference compound], for which, in data set [1], the IC50 is 3.8 ± 1.7 nM. Further, the “HSA-binding HiPAC” value in data set [2] is on record as 74.7%.

Consider `CC(C)(C)[Si](F)(c1ccc(C(=O)NC[C@@H](NC(=O)CC[C@@H](C(=O)O)N2CCN(CC(=O)O)CCN(CC(=O)O)CCN(CC(=O)O)CC2)C(=O)N[C@H](CCCCNC(=O)CCC(=O)NCCC[C@@H](NC(=O)CC[C@H](NC(=O)N[C@@H](CCC(=O)O)C(=O)O)C(=O)O)C(=O)O)C(=O)O)cc1)C(C)(C)C` [rhPSMA-7.3, reference compound], for which the concentration for half-maximal inhibition (IC50) in data set [1] worked out at 8 ± 1.6 nM. Moreover, the “HSA-binding HiPAC” value in data set [2] is recorded as 98.5%.

Turning to `CC(C)(C)[Si](F)(c1ccc(C(=O)NC[C@@H](NC(=O)CN2CCN(CC(=O)O)CCN(CC(=O)O)CCN(CC(=O)O)CC2)C(=O)N[C@H](CCCCNC(=O)CCC(=O)NCCC[C@@H](NC(=O)CC[C@H](NC(=O)N[C@@H](CCC(=O)O)C(=O)O)C(=O)O)C(=O)O)C(=O)O)cc1)C(C)(C)C` [rhPSMA-10, reference compound], the IC50 in data set [1] was 2.8 ± 0.7 nM. Besides, the “HSA-binding HiPAC” value in data set [2] came to 94.0%.
